pIC50: −log10 of the molar value. “Also recorded” adds a separate entry of the source. Where two headings read alike, the source gives them in different places.
What was measured:
[1] = Thermodynamic solubility PG_H2O pH 6 2/8; type: physicochemical; conditions: amorphous, no cristalline material available
[2] = In vivo pharmacokinetic analysis in rat, iv; parameters: species or system male Wistar Han rat; conditions: iv 1 mg/kg
Method: (§1) One male Wistar Han rat. Compound was administered intravenously to fed animal at a target dose of 1 mg/kg, dose volume: 2 mL/kg, in DMSO/hydroxypropyl-beta-cyclodextrin 20% in phosphate buffer 60 mM pH 7 (5:95). Blood samples were collected at various time points. Blood samples were then assayed using a method based upon protein precipitation with acetonitrile followed by LC/MS/MS analysis. Non-compartmental methods were used for pharmacokinetic analysis of blood concentration versus time data

[3] = Intrinsic clearance in human hepatocytes; type: in vitro ADME; conditions: 2.5 μM
Method: (§2) The intrinsic clearance was assessed in cryopreserved Hepatocytes obtained by Human livers donors of mix gender pooled together, male balb-c mouse, male Wistar Han rats and male Göttingen minipig, by looking at the parent compound disappearance. The incubations were performed using a final concentration of viable cells of 1 million/ml (viability above 70%) and test item of 2.5 μM. Incubations were followed up to 2 h. Aliquotes were withdrawn at different time points and reaction quenched with acetonitrile. After centrifugation the supernatant was analyzed by HPLC/MS to quantify the remaining amount of parent in comparison with time 0. The clearance was calculated by fitting the log of the percentage remaining with Graphpad Prism ver.7.

[4] = Systemic level in PD/IL6 mouse topical dose response; conditions: topical 10 mM, PG/Acetone/Transcutol
[5] = system: 44 targets (binding and enzyme/uptake assays); test: CEREP Safety Screen-44; conditions: 10 μM
Method: An in vitro pharmacology assay was conducted to assess the capability of the compounds to interact with different pharmacological targets when tested at 10 μM in different binding and enzyme/uptake assays. The included targets are indicative of potential effects in major organs and drug-drug interactions.
Compound binding was calculated as a % inhibition of the binding of a radioactively labelled ligand specific for each target. […] […].

[6] = Intrinsic clearance in rat hepatocytes; type: in vitro ADME, male Wistar Han rats; conditions: 2.5 μM
Method: as §2

[7] = Intrinsic clearance in mouse hepatocytes; type: in vitro ADME, male balb-c mouse; conditions: 2.5 μM
Method: as §2

[8] = Human skin ex vivo: flux through skin and dermis concentration (Franz cells); type: in vitro ADME; conditions: PG/H2O cream 1 mg/mL
[9] = system: IL-6 induced Phospho-STAT3 (Tyr705) in TF-1 cells; test: In vitro cellular pSTAT3 assay, IL-6 stimulated TF-1 cells; type: cell-based; conditions: Homo sapiens
[10] = system: IL6 signalling in hWB; test: hWB assay, IL6; type: cell-based, human; conditions: Homo sapiens, read-out: hWB assay: IC50 IL6
[11] = Intrinsic clearance in minipig hepatocytes; type: in vitro ADME, male Göttingen minipig; conditions: 2.5 μM
Method: as §2

[12] = Protein binding analysis (RED), mouse plasma; type: in vitro ADME, male balb-c mice; conditions: 5 μM, RED 4 h
Method: (§3) The protein binding was assessed in plasma of Human, male balb-c mice, male Wistar Han rat, male Gottingen minipig by rapid equilibrium dialysis (RED) devices. After the plasma and buffer phosphate 50 mM pH7.4 were equilibrated at 37° C., the compound was added to plasma to reach a final concentration of 5 μM. An aliquot of plasma was withdrawn immediately. Equilibration under mild agitation was continued for 4 h. The plasma and buffer were sampled and samples were quenched with 4 volumes of acetonitrile and centrifuged. Supernatant was quantified in HPLC/MS/MS to calculate the recovery and the percentage of compound dissolved in the buffer (unbound) and bound to plasma proteins.

[13] = Kinetic aqueous solubility; type: physicochemical
[14] = Protein binding analysis (RED), human plasma; type: in vitro ADME; conditions: 5 μM, RED 4 h
Method: as §3

[15] = Protein binding analysis (RED), rat plasma; type: in vitro ADME, male Wistar Han rat; conditions: 5 μM, RED 4 h
Method: as §3

[16] = In vivo pharmacokinetic analysis in minipig, iv; parameters: species or system male Göttingen minipigs; conditions: iv 1 mg/kg
Method: as §1, with “Three” for “One”, “Göttingen minipigs.” for “Wistar Han rat.”, “animals” for “animal”, “volume 1” for “volume: 2”, “DMSO: hydroxypropyl-β-cyclodextrin” for “DMSO/hydroxypropyl-beta-cyclodextrin”, “data.” for “data”

SMILES: N#CC[C@H](C1CCCC1)n1cc(-c2ncnc3[nH]ccc23)cn1 [Ruxolitinib, reference compound]
- Sol PG_H2O pH 6 2/8, amorphous material [1]: material available-1 mM; also recorded: (0.3 mg/mL)-amorphous)
- iv PK rat: Cl (value in brackets, %) [2]: 51%
- Intr. Clear. h heps [3]: 4.4 microL/min/10 6 cells
- PD/IL6 mouse top DR 0.01-10 mM: Systemic level @ 10 mM - 2 hrs [4]: 81 nM
- Safety panel (Cerep): 44 targets % inh @ 10 microM, Nb of targets > 50% inh [5]: 0/44
- Intr. Clear. rheps [6]: 300 microL/min/10 6 cells
- Intr. Clear. mheps [7]: 150 microL/min/10 6 cells
- measured flux 6-24 hr [8]: 5.3 ng/cm^2/hr
- pIC50 ([9]; TF-1, read-out: Cellular Assay: IC50 IL6): 8.10
- pIC50 ([9]; TF-1, read-out: Free IC50): 6.70
- pIC50 [10]: 5.16
- Intr. Clear. minipig heps [11]: 141 microL/min/10 6 cells
- mFU [12]: 7.7%
- Kinetic aq sol [13]: 232/ND (no cristalline microM
- hFU [14]: 4%
- rFU [15]: 13%
- iv PK minipig: Cl (value in brackets, %) [16]: 68%
